Patent publication US20180282323A1, “Mesoionic imidazole derivatives as insecticides” (BAYER CROPSCIENCE AKTIENGESELLSCHAFT, priority 2015, published 2018)

Tests used:
[1] = log P by HPLC on reversed-phase column (EEC directive 79/831 Annex V.A8); assay type: physicochemical; conditions: for log p: HPLC on reversed-phase column (footnote a); for log p a): HPLC on reversed-phase column
Procedure: a) The determination of the [M+H]^+ by LC-MS in the acidic range was effected at pH 2.7, with acetonitrile (containing 0.1% formic acid) and water as eluents; linear gradient from 10% acetonitrile to 95% acetonitrile, instrument: Agilent 1100 LC system, Agilent MSD system, HTS PAL.
The log P values reported in the tables and preparation examples above were determined in accordance with EEC directive 79/831 Annex V.A8 by HPLC (High Performance Liquid Chromatography) using a reversed-phase column (C18). Temperature 43° C.

[2] = test system: Myzus persicae; assay: Myzus persicae oral test; assay type: in vivo; conditions: application rate 20 ppm, oral uptake through parafilm, after 5 days
Procedure: Myzus persicae—Oral Test Solvent: 100 parts by weight of acetone
To produce an appropriate active ingredient formulation, 1 part by weight of active ingredient is dissolved with the stated parts by weight of solvent and made up with water until the desired concentration is attained.
50 μl of the active ingredient formulation are transferred into microtitre plates and made up to a final volume of 200 μl with 150 μl of IPL41 insect medium (33%+15% sugar). Subsequently, the plates are sealed with parafilm, which a mixed population of green peach aphids (Myzus persicae) within a second microtitre plate is able to puncture and imbibe the solution through it.
After 5 days, the efficacy in % is determined. 100% means that all the aphids have been killed; 0% means that no aphids have been killed.

Row | SMILES | log p [1] | efficacy [2] [%] | log p a) [1]
1 | COCC(=O)c1c([O-])n(Cc2cnc(Cl)s2)c2ccc(Cl)c[n+]12 [Example I-1-118] | 1.69 | 100 | –
2 | CCOCC(=O)c1c([O-])n(Cc2cnc(Cl)s2)c2ccc(Cl)c[n+]12 [Example I-1-119] | 1.96 | 100 | –
3 | COC(=O)c1c([O-])n(Cc2cnc(Cl)s2)c2cccc(Cl)[n+]12 [Example I-1-121] | 1.32 | 100 | –
4 | COCC(=O)c1c([O-])n(Cc2cnc(OC)s2)c2cc(Cl)cc[n+]12 [Example I-1-124] | 1.51 | 100 | –
5 | Cc1ccc2n(Cc3cnc(Cl)s3)c([O-])c(C(=O)CCl)[n+]2c1 [Example I-1-125] | 1.99 | 90 | –
6 | Cc1cc[n+]2c(C(=O)CCl)c([O-])n(Cc3cnc(Cl)s3)c2c1 [Example I-1-126] | 1.96 | 90 | –
7 | CC(C)NC(=O)c1c([O-])n(Cc2cnc(Cl)s2)c2cccc[n+]12 [Example I-1-131] | 1.95 | 100 | –
8 | O=C(NC1CC1)c1c([O-])n(Cc2ccc(Cl)nc2)c2cccc[n+]12 [Example I-1-133] | 1.85 | 90 | –
9 | O=C(NC1CCCC1)c1c([O-])n(Cc2cnc(Cl)s2)c2cccc[n+]12 [Example I-1-138] | 2.35 | 100 | –
10 | CC(NC(=O)c1c([O-])n(Cc2cnc(Cl)s2)c2cccc[n+]12)c1ccc(Cl)cc1 (centres unmarked) [Example I-1-142] | 3.13 | 100 | –
11 | O=C(Nc1ccc(Cl)nc1)c1c([O-])n(Cc2cnc(Cl)s2)c2cccc[n+]12 [Example I-1-146] | 2.55 | 100 | –
12 | CC(C)(C)NC(=O)c1c([O-])n(Cc2cnc(Cl)s2)c2cccc[n+]12 [Example I-1-151] | 2.39 | 100 | –
13 | COC(=O)c1c([O-])n(Cc2ccc(Cl)nc2)c2ccc(F)c[n+]12 [Example I-1-155] | 1.43 | 100 | –
14 | COC(=O)c1c([O-])n(Cc2ccc(Cl)nc2)c2cccc(C)[n+]12 [Example I-1-157] | 1.27 | 100 | –
15 | COC(=O)c1c([O-])n(Cc2cncc(Cl)c2)c2cccc[n+]12 [Example I-1-158] | 1.15 | 100 | –
16 | Cc1ccc[n+]2c(C(=O)CCl)c([O-])n(Cc3ccc(Cl)nc3)c12 [Example I-1-159] | 1.78 | 100 | –
17 | COC(=O)c1c([O-])n(Cc2ccc(Cl)nc2)c2c(C)ccc[n+]12 [Example I-1-160] | 1.39 | 100 | –
18 | COCC(=O)c1c([O-])n(Cc2ccc(Cl)nc2)c2c(Cl)ccc[n+]12 [Example I-1-164] | 1.59 | 90 | –
19 | COCC(=O)c1c([O-])n(Cc2ccc(Cl)nc2)c2cccc(C)[n+]12 [Example I-1-166] | 1.33 | 100 | –
20 | COCC(=O)c1c([O-])n(Cc2ccc(Cl)nc2)c2ccc(C)c[n+]12 [Example I-1-167] | 1.48 | 100 | –

Row | SMILES | log p [1] | efficacy [2] [%] | log p a) [1]
21 | O=C(CCl)c1c([O-])n(Cc2cnc(Cl)c(Cl)c2)c2cccc[n+]12 [Example I-1-168] | 2.11 | 100 | –
22 | O=C(NC1CC1)c1c([O-])n(Cc2ccc(Cl)nc2)c2ccc(F)c[n+]12 [Example I-1-170] | 1.79 | 100 | –
23 | Cc1cccc2n(Cc3ccc(Cl)nc3)c([O-])c(C(=O)NC3CC3)[n+]12 [Example I-1-171] | 1.05 | 100 | –
24 | N#Cc1ccc[n+]2c(C(=O)CCl)c([O-])n(Cc3ccc(Cl)nc3)c12 [Example I-1-172] | 1.78 | 90 | –
25 | COCC(=O)c1c([O-])n(Cc2cnc(OC)s2)c2ccc(C)c[n+]12 [Example I-1-173] | 1.35 | 100 | –
26 | COCC(=O)c1c([O-])n(Cc2cnc(Cl)s2)c2ccc(C)c[n+]12 [Example I-1-174] | 1.52 | 100 | –
27 | CCOCC(=O)c1c([O-])n(Cc2cnc(Cl)s2)c2ccc(C)c[n+]12 [Example I-1-175] | 1.78 | 100 | –
28 | CCOCC(=O)c1c([O-])n(Cc2cncc(Cl)c2)c2cccc[n+]12 [Example I-1-177] | 1.37 | 100 | –
29 | COCC(=O)c1c([O-])n(Cc2ccc(C(F)(F)F)nc2)c2cccc[n+]12 [Example I-1-180] | 1.49 | 100 | –
30 | Cc1ccc[n+]2c(C(=O)NC3CC3)c([O-])n(Cc3ccc(Cl)nc3)c12 [Example I-1-181] | 1.75 | 100 | –
31 | CCOCC(=O)c1c([O-])n(Cc2ccc(Cl)nc2)c2c(C)ccc[n+]12 [Example I-1-182] | 1.6 | 100 | –
32 | CCOCC(=O)c1c([O-])n(C(C)c2ccc(Cl)nc2)c2cccc[n+]12 (centres unmarked) [Example I-1-186] | 1.58 | 100 | –
33 | CCOCC(=O)c1c([O-])n(Cc2ccc(C(F)(F)F)nc2)c2cccc[n+]12 [Example I-1-188] | 1.72 | 100 | –
34 | Cc1cccc2n(Cc3cnc(Cl)s3)c([O-])c(C(=O)NC3CC3)[n+]12 [Example I-1-190] | 1.16 | 100 | –
35 | Cc1ccc[n+]2c(C(=O)NCC(C)C)c([O-])n(Cc3ccc(Cl)nc3)c12 [Example I-1-191] | 2.33 | 90 | –
36 | CCOCC(=O)c1c([O-])n(Cc2cnc(Cl)c(Cl)c2)c2cccc[n+]12 [Example I-1-192] | 1.93 | 100 | –
37 | O=C(NC1CC1)c1c([O-])n(Cc2cncc(Cl)c2)c2cccc[n+]12 [Example I-1-195] | 1.52 | 90 | –
38 | COC(=O)c1c([O-])n(C(C)c2ccc(Cl)nc2)c2cccc[n+]12 (centres unmarked) [Example I-1-198] | – | 100 | 1.32
39 | COC(=O)c1c([O-])n(Cc2cnc(Cl)c(Cl)c2)c2cccc[n+]12 [Example I-1-199] | – | 100 | 1.66
40 | O=C(NC1CC1)c1c([O-])n(Cc2ccc(C(F)(F)F)nc2)c2cccc[n+]12 [Example I-1-200] | – | 90 | 1.87

Row | SMILES | log p [1] | efficacy [2] [%] | log p a) [1]
41 | O=C(NC1CC1)c1c([O-])n(Cc2cnc(Cl)c(Cl)c2)c2cccc[n+]12 [Example I-1-201] | – | 100 | 2.08
42 | COCC(=O)c1c([O-])n(Cc2ccc(Cl)nc2)c2c(F)ccc[n+]12 [Example I-1-205] | – | 100 | 1.44
43 | COC(=O)c1c([O-])n(Cc2cnc(Cl)s2)c2c(C)ccc[n+]12 [Example I-1-206] | – | 100 | 1.46
44 | O=C(CCl)c1c([O-])n(Cc2ccc(F)nc2)c2cccc[n+]12 [Example I-1-207] | – | 100 | 1.38
45 | COc1ccc(NC(=O)c2c([O-])n(Cc3cnc(Cl)s3)c3c(C)ccc[n+]23)cc1 [Example I-1-208] | – | 100 | 2.91
46 | O=C(CCl)c1c([O-])n(Cc2cnc(Cl)s2)c2cccc[n+]12 [Example I-1-209] | – | 100 | 1.24
47 | Cc1ccc[n+]2c(C(=O)Nc3ccccc3)c([O-])n(Cc3cnc(Cl)s3)c12 [Example I-1-211] | – | 90 | 3.1
48 | Cc1ccc[n+]2c(C(=O)Nc3c(F)cccc3F)c([O-])n(Cc3cnc(Cl)s3)c12 [Example I-1-212] | – | 100 | 2.73
49 | Cc1ccc[n+]2c(C(=O)NC(C)(C)C)c([O-])n(Cc3cnc(Cl)s3)c12 [Example I-1-213] | – | 100 | 2.69
50 | COC(=O)c1c([O-])n(Cc2ccc(F)nc2)c2c(C)ccc[n+]12 [Example I-1-214] | – | 100 | 1.21
51 | COC(=O)c1c([O-])n(Cc2cnc(C)cn2)c2cccc[n+]12 [Example I-1-215] | – | 100 | 0.80
52 | Cc1cnc(Cn2c([O-])c(C(=O)Nc3ccccc3)[n+]3ccccc23)cn1 [Example I-1-218] | – | 100 | 2.05
53 | Cc1ccc[n+]2c(C(=O)Nc3ccc(F)cc3)c([O-])n(Cc3ccc(Cl)nc3)c12 [Example I-1-219] | – | 100 | 2.9
54 | Cc1ccc[n+]2c(C(=O)NC3CC3)c([O-])n(Cc3ccc(F)nc3)c12 [Example I-1-222] | – | 100 | 1.58
55 | Cc1ncc(Cn2c([O-])c(C(=O)NC3CC3)[n+]3cccc(C)c23)s1 [Example I-1-223] | – | 100 | 1.45
56 | CCNC(=O)c1c([O-])n(C(C)c2ccc(Cl)nc2)c2cccc[n+]12 (centres unmarked) [Example I-1-228] | – | 100 | 1.72
57 | CC(c1ccc(Cl)nc1)n1c([O-])c(C(=O)Nc2ccccc2)[n+]2ccccc12 (centres unmarked) [Example I-1-229] | – | 100 | 2.8
58 | O=C(Nc1ccccc1Cl)c1c([O-])n(Cc2cnc(Cl)s2)c2cccc[n+]12 [Example I-1-234] | – | 100 | 3.29
